Publication PMC10724237, “Identification of 5-HT2A receptor signaling pathways associated with psychedelic potential” (Nature Communications, 2023)
Like-named read-outs stand apart in the source and are kept apart here.

Legend:
[1] = molecular target: T1, 5-HT2A receptor (5-HT2AR) (Homo sapiens, UniProt P28223); type: cell-based
T1 construct: gene HTR2A; full-length receptor in HEK293T; co-expressed Galphaq-RLuc8/Gbeta1/Ggamma1-GFP2 for Gq dissociation; C-terminal RLuc8 fusion for beta-arrestin2 recruitment
T1 sequence (P28223 whole entry, the tested form may be a part): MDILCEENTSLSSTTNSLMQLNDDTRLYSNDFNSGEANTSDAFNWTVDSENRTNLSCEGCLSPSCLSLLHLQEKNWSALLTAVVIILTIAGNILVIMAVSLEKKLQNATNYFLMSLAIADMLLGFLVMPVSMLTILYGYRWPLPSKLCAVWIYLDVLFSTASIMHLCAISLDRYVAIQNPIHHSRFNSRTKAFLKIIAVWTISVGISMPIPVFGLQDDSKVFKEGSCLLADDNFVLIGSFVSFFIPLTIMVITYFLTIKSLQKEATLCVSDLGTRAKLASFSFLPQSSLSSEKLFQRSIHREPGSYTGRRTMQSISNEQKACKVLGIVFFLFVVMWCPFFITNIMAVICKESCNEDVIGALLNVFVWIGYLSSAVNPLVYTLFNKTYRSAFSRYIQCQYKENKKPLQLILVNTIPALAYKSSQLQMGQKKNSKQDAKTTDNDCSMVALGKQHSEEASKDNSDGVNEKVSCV

[2] = molecular target: T1, 5-HT2A receptor (5-HT2AR); test: competition radioligand binding (NIMH PDSP); details: competitive
[3] = molecular target: T1, 5-HT2A receptor (5-HT2AR); test: Gq dissociation BRET2 in HEK293T; type: cell-based; details: 37 °C
[4] = molecular target: T2, 5-HT2B receptor (5-HT2BR) (Homo sapiens, UniProt P41595); test: Gq dissociation BRET2 in HEK293T; type: cell-based; details: partial agonist; 37 °C, 60 min
T2 construct: gene HTR2B; full-length receptor in HEK293T with Galphaq-RLuc8/Gbeta1/Ggamma1-GFP2
T2 sequence (P41595 whole entry): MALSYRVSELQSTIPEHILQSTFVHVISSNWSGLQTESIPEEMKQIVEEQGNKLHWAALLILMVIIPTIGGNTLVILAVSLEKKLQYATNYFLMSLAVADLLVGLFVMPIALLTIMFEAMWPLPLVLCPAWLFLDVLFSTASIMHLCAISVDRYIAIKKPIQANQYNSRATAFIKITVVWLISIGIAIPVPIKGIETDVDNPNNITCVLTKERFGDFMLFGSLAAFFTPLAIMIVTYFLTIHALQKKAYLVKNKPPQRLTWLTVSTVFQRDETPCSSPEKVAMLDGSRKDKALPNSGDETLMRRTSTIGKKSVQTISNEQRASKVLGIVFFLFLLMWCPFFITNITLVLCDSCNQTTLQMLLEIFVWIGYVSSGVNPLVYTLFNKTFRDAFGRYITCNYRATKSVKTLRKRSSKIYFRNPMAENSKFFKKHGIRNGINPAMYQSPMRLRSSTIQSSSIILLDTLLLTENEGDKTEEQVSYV

[5] = molecular target: T3, 5-HT2C receptor (5-HT2CR) (Homo sapiens, UniProt P28335); test: Gq dissociation BRET2 in HEK293T; type: cell-based; details: agonist; 37 °C, 60 min
T3 construct: gene HTR2C; full-length receptor in HEK293T with Galphaq-RLuc8/Gbeta1/Ggamma1-GFP2
T3 sequence (P28335 33-458): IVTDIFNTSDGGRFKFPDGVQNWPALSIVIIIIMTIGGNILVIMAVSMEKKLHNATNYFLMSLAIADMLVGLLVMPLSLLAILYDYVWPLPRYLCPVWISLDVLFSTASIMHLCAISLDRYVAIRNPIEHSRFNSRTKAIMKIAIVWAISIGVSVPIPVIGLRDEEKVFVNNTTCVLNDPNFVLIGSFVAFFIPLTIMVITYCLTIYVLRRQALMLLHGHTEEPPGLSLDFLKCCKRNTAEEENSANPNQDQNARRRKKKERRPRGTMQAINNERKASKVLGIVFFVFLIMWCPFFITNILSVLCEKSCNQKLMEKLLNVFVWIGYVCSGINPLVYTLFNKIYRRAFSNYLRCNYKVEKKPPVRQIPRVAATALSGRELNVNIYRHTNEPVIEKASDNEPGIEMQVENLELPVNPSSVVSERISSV

`COc1ccc2[nH]cc(CCN(C)C)c2c1` [5-MeO-DMT, 5-methoxy-N,N-dimethyltryptamine] was tested, and the EC50 ([1]; agonist, 37 °C, 60 min) was “(E) Psilocin, (F) DMT, (G) 5-MeO-DMT”.
`CN(C)CCc1c[nH]c2cccc(O)c12` [Psilocin] was tested, and the EC50 ([1]; agonist, 37 °C, 60 min) was “(E) Psilocin, (F) DMT, (G) 5-MeO-DMT”.
`COc1cc([N+](=O)[O-])c(OC)cc1CCNCc1ccccc1I` [compound 10, 25N-NBI] was tested, and the pKi [2] was “selectivity for 5-HT2AR over 5-HT2BR and 5-HT2CR in competitive binding studies”.
In the case of `CN(C)CCc1c[nH]c2ccccc12` [DMT], the EC50 [1] is reported as “(E) Psilocin, (F) DMT, (G) 5-MeO-DMT”.
With `COc1cc(CCNCc2cccc3ccccc23)c(OC)cc1C` [compound 26, 25D-N1-Nap] the EMAX ([3]; partial agonist) was 34.3 % of 5-HT.
`COc1cc(OC)c(OC)cc1CCNCc1ccccc1OC` [compound 32] was tested, and the EMAX ([3]; agonist) was 99.9 % of 5-HT.
`COc1cc([N+](=O)[O-])c(OC)cc1CCNCc1ccccc1` [compound 2, 25N-NB] was tested, and the EMAX [4] was 32 % of 5-HT and the EC50 [5] was 8.3 nM.
`COc1cc(OC)c(OC)cc1CCNCc1cccc(I)c1` [compound 34, 25O-NB-3-I] was tested, and the EMAX ([3]; partial agonist) was 51.7 % of 5-HT.
